Measurements reported in US7084145B2, “Triazole compounds useful in therapy” (Pfizer Inc., priority 2002, dated 2006).

Assays:
human V1A receptor = target: T1, human V1A receptor (Homo sapiens, UniProt P37288); test: V1A filter binding assay ([3H]-AVP binding to CHO-hV1A membranes); conditions: screen 1.0, [3H]-AVP displacement
T1 construct: host or cells: CHO cells (CHO-hV1A), membrane preparation
Method: 1.0 V1A Filter Binding Assay
Receptor binding assays were performed on cellular membranes prepared from CHO cells stably expressing the human V1A receptor, (CHO-hV1A). The CHO-hV1A cell line was kindly provided under a licensing agreement by Marc Thibonnier, Dept. of Medicine, Case Western Reserve University School of Medicine, Cleveland, Ohio. CHO-hV1A cells were routinely maintained at 37° C. in humidified atmosphere with 5% CO2 in DMEM/Hams F12 nutrient mix supplemented with 10% fetal bovine serum, 2 mM L-glutamine, 15 mM HEPES and 400 μg/ml G418. For bulk production of cell pellets, adherent CHO-hV1A cells were grown to confluency of 90–100% in 850 cm^2 roller bottles containing a medium of DMEM/Hams F12 Nutrient Mix supplemented with 10% fetal bovine serum, 2 mM L-glutamine and 15 mM HEPES. Confluent CHO-hV1A cells were washed with phosphate-buffered saline (PBS), harvested into ice cold PBS and centrifuged at 1,000 rpm. Cell pellets were stored at −80° C. until use. Cell pellets were thawed on ice and homogenised in membrane preparation buffer consisting of 50 mM Tris-HCl, pH 7.4, 5 mM MgCl2 and supplemented with a protease inhibitor cocktail, (Roche). The cell homogenate was centrifuged at 1000 rpm, 10 min, 4° C. and the supernatant was removed and stored on ice. The remaining pellet was homogenised and centrifuged as before. The supernatants were pooled and centrifuged at 25,000×g for 30 min at 4° C. The pellet was resuspended in freezing buffer consisting of 50 mM Tris-HCl, pH 7.4, 5 mM MgCl2 and 20% glycerol and stored in small aliquots at −80° C. until use. Protein concentration was determined using Bradford reagent and BSA as a standard.
Protein linearity followed by saturation binding studies were performed on each new batch of membrane. Membrane concentration was chosen that gave specific binding on the linear portion of the curve.
Compounds were tested for their effects on [^3H]-AVP binding to CHO-hV1A membranes, (^3H-AVP; specific activity 65.5 Ci/mmol; NEN Life Sciences). Compounds were solubilised in dimethylsulfoxide (DMSO) and diluted to working concentration of 10% DMSO with assay buffer containing 50 mM Tris-HCL pH 7.4, 5 mM MgCl2 and 0.05% BSA. […] The plates were sealed and counted on a TopCount Microplate Scintillation Counter (Packard Instruments). […] The radioligand binding data was analysed using a four parameter logistic equation with the min forced to 0%. […] Specific binding was calculated by subtracting the mean NSB cpm from the mean Total cpm. […] The inhibitory dissociation constant (Ki) was calculated using the Cheng-Prusoff equation: Ki=IC50/(1+[L]/Kd) where [L] is the concentration of ligand present in the well and Kd is the dissociation constant of the radioligand obtained from Scatchard plot analysis.

T1 sequence (P37288 whole entry): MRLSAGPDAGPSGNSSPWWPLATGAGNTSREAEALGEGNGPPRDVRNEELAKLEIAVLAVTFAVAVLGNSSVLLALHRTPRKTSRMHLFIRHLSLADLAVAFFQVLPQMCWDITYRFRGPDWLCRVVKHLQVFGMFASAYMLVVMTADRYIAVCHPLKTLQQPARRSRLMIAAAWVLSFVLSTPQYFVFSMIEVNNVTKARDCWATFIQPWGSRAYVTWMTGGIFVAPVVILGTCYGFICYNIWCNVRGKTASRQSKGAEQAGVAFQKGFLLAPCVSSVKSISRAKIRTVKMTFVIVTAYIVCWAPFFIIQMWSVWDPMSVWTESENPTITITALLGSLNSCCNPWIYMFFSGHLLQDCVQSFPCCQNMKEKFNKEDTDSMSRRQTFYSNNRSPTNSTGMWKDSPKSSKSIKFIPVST

SMILES | Ki (human V1A receptor) [nM] | melting point [°C]
C[C@@H](c1ccccc1)n1c(CN2CCCCC2)nnc1C1CCN(c2ccccn2)CC1 [Example 25, (S)-4-[4-(1-Phenyl-ethyl)-5-piperidin-1-ylmethyl-4H-[1,2,4]triazol-3-yl]-3,4,5,6-tetrahydro-2H-[1,2′]bipyridinyl] | 16.1 | 
COC1CCN(Cc2nnc(C3CCN(c4ccccn4)CC3)n2Cc2ccccc2)CC1 [Example 26, 4-[4-Benzyl-5-(4-methoxy-piperidin-1-ylmethyl)-4H-[1,2,4]triazol-3-yl]-3,4,5,6-tetrahydro-2H-[1,2′]bipyridinyl] | 4.5 | 
c1ccc(Cn2c(CN3CCCCC3)nnc2C2CCN(c3ccccn3)CC2)cc1 [Example 24, 4-(4-Benzyl-5-piperidin-1-ylmethyl-4H-[1,2,4]triazol-3-yl)-3,4,5,6-tetrahydro-2H-[1,2′]bipyridinyl] | 12.1 | 
Cc1nnc(C2CCN(c3cnccn3)CC2)n1Cc1ccccc1 [Example 23, 2-[4-(4-Benzyl-5-methyl-4H-[1,2,4]triazol-3-yl)-piperidin-1-yl]-pyrazine] |  | 191.1
c1ccc(COCc2nnc(C3CCN(c4ccccn4)CC3)n2Cc2ccccc2)cc1 [Example 17, 4-(4-Benzyl-5-benzyloxymethyl-4H-[1,2,4]triazol-3-yl)-3,4,5,6-tetrahydro-2H-[1,2′]bipyridinyl] | 4.67 | 
